Laboratory results taken from ChEMBL document CHEMBL5727270, “Macrocyclic immunomodulators” (2019).

Molecular target: Programmed cell death 1 ligand 1 (Homo sapiens, UniProt Q9NZQ7)
Experiment: Enzyme-Linked Immunosorbent Assay - ELISA: 96 Well plates were coated with 1 μg/mL of human PD-L1 (obtained from R&D) in PBS overnight at 4° C. The wells were then blocked with 2% BSA in PBS (W/V) with 0.05% TWEEN-20 for 1 hour at 37° C. The plates were washed 3 times with PBS/0.05% TWEEN-20 and the compounds were serial diluted (1:5) in dilution medium and added to the ELISA plates. Human PD-1 and biotin 0.3 μg/mL (ACRO Biosystems) were added and incubated for 1 hour at 37° C. then washed 3 times with PBS/0.05% TWEEN-20. A second block was performed with 2% BSA in PBS (W/V)/0.05% TWEEN-20 for 10 min at 37° C. and was washed 3 times with PBS/0.05% TWEEN-20. Streptavidin-HRP was added for 1 hour at 37° C. then washed 3 times with PBS/0.05% TWEEN-20. TMB substrate was added and reacted for 20 min at 37° C. A stop solution (2 N aqueous H2SO4) was added. The absorbance was read at 450 nm using a micro-plate spectrophotometer.

Chain of Programmed cell death 1 ligand 1 (Q9NZQ7 whole entry): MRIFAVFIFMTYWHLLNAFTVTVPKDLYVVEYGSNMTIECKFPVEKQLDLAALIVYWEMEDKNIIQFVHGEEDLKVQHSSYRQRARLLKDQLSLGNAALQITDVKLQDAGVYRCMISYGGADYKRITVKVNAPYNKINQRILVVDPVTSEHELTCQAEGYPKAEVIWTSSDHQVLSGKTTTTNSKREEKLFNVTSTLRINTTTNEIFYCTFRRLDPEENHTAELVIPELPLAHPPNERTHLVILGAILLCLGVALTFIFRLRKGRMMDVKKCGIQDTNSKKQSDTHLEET

Row | SMILES | IC50 [nM]
1 | Cc1c(COc2cc3c(cc2Cl)CN[C@@H](C(=O)O)CCCCNC(=O)c2cncc(c2)CO3)cccc1-c1ccccc1 | < 100
2 | Cc1c(COc2cc3c(cc2Cl)CN[C@H](CO)CCCCNC(=O)c2cncc(c2)CO3)cccc1-c1cccc(OCCCN2CCC(O)CC2)c1C | < 100
3 | Cc1c(COc2cc3c(cc2Cl)CN[C@H](C(=O)O)CCCCNC(=O)c2cncc(c2)CO3)cccc1-c1cccc(OCCCN2CC[C@@H](O)C2)c1C | < 100
4 | Cc1c(COc2cc3c(cc2Cl)CN[C@H](C(=O)O)CCCCCCNC(=O)c2cncc(c2)CO3)cccc1-c1cccc(OCCCN2CCC(O)CC2)c1C | < 100
5 | Cc1c(COc2cc3c(cc2Cl)CN[C@H](C(=O)O)CCCCNC(=O)c2cc(C#N)cc(c2)CO3)cccc1-c1cccc(OCCCN2CC[C@@H](O)C2)c1C | < 100
6 | Cc1c(COc2cc3c(cc2Cl)CN[C@H](C(=O)O)CCCCNC(=O)c2cc(C#N)cc(c2)CO3)cccc1-c1cccc(OCCCN2CCC(O)CC2)c1C | < 100
